Laboratory results from patent publication US20100291089A1, “LIGAND OF REGULATING IMMUNE RESPONSE, AND USE THEREOF IN TREATING AN IMMUNE RESPONSE-RELATED DISEASE” (POSTECH ACADEMY-INDUSTRY FOUNDATION, priority 2005, published 2010).
Where no end group is shown, it is not given here.

Legend:
Format in all cases: cell-based
[1] = test system: human neutrophils; test: Neutrophil chemotaxis assay (multiwell chamber, checkerboard analysis); settings: 1 μM WRW4, 1 μM PACAP27
Description: Chemotaxis assays were performed using multiwell chambers (Neuroprobe Inc., Gaithersburg, Md.) (Bae, Y. S., H. Bae, Y. Kim, T. G. Lee, P. G. Suh, and S. H. Ryu. 2001. Blood 97:2854-2862). Prepared human neutrophils were suspended in RPMI 1640 medium at a 1×10^6 cells/ml, and 25 μl of this suspension was placed into the upper well of a chamber separated from the lower chamber, which was filled with testing solutions, by a […] filter (not coated with polyvinylpyrrolidone). After incubating for 2 hours at 37° C., non-migrated cells were removed by scraping, and cells that had migrated across the filter were dehydrated, fixed, and stained with hematoxylin (Sigma, St. Louis, Mo.). Stained cells in five randomly chosen high power fields (HPF) (400×) were then counted.
Neutrophil migration was analyzed for 2 hours across a polycarbonate membrane. Various concentrations of PACAP27 (SEQ ID NO:1) as shown in the following Table 1 were placed in the upper and lower compartments of the chambers. Data are presented as means±SE for migrated neutrophils cells per field counted in triplicate of two independent experiments.

[2] = test system: human neutrophils; test: Intracellular calcium mobilization (fura-2) in human neutrophils
Description: (§1) Neutrophils were stimulated with 1 μM of PACAP27 (SEQ ID NO:1), PACAP38 (SEQ ID NO:2), or VIP (SEQ ID NO:3), and calcium concentrations were measured for 10 min. In order to measure EKR phosphorylation, each peptide hormones was used with 1 μM concentrations for 5 min. For cAMP measurement, each peptide hormones was used with 1 μM concentrations for 10 min.
Intracellular calcium concentrations ([Ca^2+]i) were determined using Grynkiewicz's method with fura-2/AM, as described in “Grynkiewicz, G., M. Poenie, and R. Y. Tsien. 1985. […] J. Biol. Chem. 260:3440-3450”. Briefly, the cells prepared in Example 1.2 were incubated with 3 µM fura-2/AM at 37° C. for 50 minutes in fresh serum free RPMI 1640 medium with continuous stirring. The incubated cells (2×10^6) were aliquoted for each assay in Ca^2+-free Locke's solution (154 mM NaCl, 5.6 mM KCl, 1.2 mM MgCl2, 5 mM HEPES (pH 7.3), 10 mM glucose, and 0.2 mM EGTA). Fluorescence changes at 340 and 380 nm using a common emission wavelength of 500 nm were measured, and fluorescence ratios were converted to [Ca2+]i, as described in above Grynkiewicz, G. et al.

[3] = test system: human neutrophils; test: Western blot for ERK phosphorylation in human neutrophils; settings: pretreating with 1 μM WRW4
Description: as §1
ERK phosphorylation levels were measured by Western blotting, as described in above Bae, Y. S. et al. Cells (2×10^6/assay) were stimulated with the indicated concentration of agonist for 5 minutes, then washed with serum-free RPMI 1640 medium and lysed in lysis buffer {20 mM HEPES (pH 7.2), 10% glycerol, 150 mM NaCl, 1% Triton X-100, 1 mM PMSF, […], 50 mM NaF, and 1 mM Na3VO4}. Detergent-insoluble materials were pelleted by centrifugation (12,000×g, 15 minutes, 4° C.), and the soluble supernatant fraction was removed and either stored at −80° C. or used immediately. Laemmli sample buffer was added to these fractions and boiled (5 minutes). Proteins were separated by SDS-PAGE and transferred to nitrocellulose membranes (Schleicher and Schuell, BA85). Blocking was performed using TBS buffer (10 mM Tris/HCl, pH 7.5, 150 mM NaCl, and 0.05% Tween-20) containing 5% nonfat dry milk. Membranes were probed with a phospho-ERK specific primary antibody or ERK2 antibody for 3 hours at room temperature. […]

[4] = test system: human neutrophils; test: Intracellular cyclic AMP measurement in neutrophils; settings: 1 μM WRW4, 10 μM PACAP27 for 10 minutes
Description: Neutrophils were stimulated with 1 μM of PACAP27 (SEQ ID NO:1), PACAP38 (SEQ ID NO:2), or VIP (SEQ ID NO:3), and calcium concentrations were measured for 10 min. In order to measure EKR phosphorylation, each peptide hormones was used with 1 μM concentrations for 5 min. […]
Briefly, neutrophils were isolated and resuspended at 5×10^6 cells/ml in Hank's balanced salt solution (HBSS) for 5-10 minutes in a shaking incubator. The HBSS was then replaced with […] HBSS containing 500 µM isobutylmethylxanthine (IBMX; a cAMP phosphodiesterase inhibitor) for 5 minutes, and then cells were stimulated for 10 minutes. The reaction was terminated by adding 1 ml of ethanol, and cAMP levels were determined by using cAMP measuring kit (Neurunex, Pohang, Korea) according to the manufacturer's instructions.

[5] = test system: human monocytes; test: Intracellular calcium signaling in human monocytes; settings: 1 μM WRW4
From the text: 1.3. Preparation of Neutrophils and Monocytes Peripheral blood was collected from healthy donors (male, 20˜30 years old, venous blood collection). Human neutrophils were isolated by dextran sedimentation followed by hypotonic erythrocyte lysis and lymphocyte separation medium gradient, as described in “Bae, Y. S., H. Bae, Y. Kim, T. G. Lee, P. G. Suh, and S. H. Ryu. 2001. Identification of novel chemoattractant peptides for human leukocytes. Blood 97:2854-2862”. Isolated human neutrophils were used promptly. Peripheral blood mononuclear cells (PBMCs) were separated on a Histopaque-1077 gradient (Bae, Y. S., H. Bae, Y. Kim, T. G. Lee, P. G. Suh, and S. H. Ryu. 2001. Identification of novel chemoattractant peptides for human leukocytes. Blood 97:2854-2862). […]
Intracellular calcium concentrations ([Ca^2+]i) were determined using Grynkiewicz's method with fura-2/AM, as described in “Grynkiewicz, G., M. Poenie, and R. Y. Tsien. […] Fluorescence changes at 340 and 380 nm using a common emission wavelength of 500 nm were measured, and fluorescence ratios were converted to [Ca2+]i, as described in above Grynkiewicz, G. et al.

[6] = test system: human neutrophils; test: FACS analysis of surface CD11b expression on neutrophils; settings: 1 μM WRW4, 10 μM PACAP27
Description: Purified neutrophils were incubated with indicated concentration of PACAP27 (SEQ ID NO:1) for 1 hour. Cells (2×10^5/assay) were washed with FACS buffer (PBS containing 1% BSA and 0.1% sodium azide), incubated with human AB type serum for 10 minutes on ice, and stained with PE-labeled human CD11b antibody (BD PharMingen, San Diego, Calif.). They were then analyzed using a FACSCalibur system (BD Biosciences, San Jose, Calif.), as described in “Harfi, I., S. D'Hondt, F. Corazza, and E. Sariban. 2004. J. Immunol. 173:4154-4163”.

## WRWWWW [WRW4]
[1]
  inhibition of PACAP27-induced neutrophil chemotaxis: completely inhibited
[2]; 1 M WRW4
  effect on PACAP27 priming of fMLP-induced calcium signaling: abolished
[2]; 1 M WRW4, 10 nM fMLP
  effect on fMLP-induced calcium signaling: not affected
[2]; human neutrophils
  concentration that completely inhibits PACAP27-induced neutrophil activation: ≥ 100 nM
[2]; human neutrophils, pretreatment 30 seconds, 1 μM PACAP27
  inhibition of PACAP27-induced [Ca2+]i up-regulation: successfully inhibited
[3]
  inhibition of PACAP27-induced ERK-phosphorylation: completely inhibited
[4]
  inhibition of PACAP27-induced cAMP elevation: failed to inhibit
[5]
  inhibition of PACAP27-induced calcium signaling in human monocytes: successfully inhibited
[6]
  inhibition of PACAP27-induced CD11b up-regulation: inhibited completely
